From ChEMBL document CHEMBL3507680, “University of Dundee, Gates Library screen for HepG2 cell viability”

Test: Human HepG2 cell viability assay in 384 well format
Assay type: toxicity, cell-based
Design: dose 125 nL, time 70.5 hour; cytotoxicity at 70.5 h: concentration not given beside the values
Details: HepG2 cells, read-out: Inhibition

| SMILES | cytotoxicity at 70.5 h |
| --- | --- |
| O=C(CN1CCCS1(=O)=O)Nc1ccc(OC2CCCC2)c(Cl)c1 | -0.366% |
| CSc1c[nH]nc1NS(=O)(=O)c1ccc(C)c(C)c1 | -2.13% |
| Cc1ccc(-c2ncc(CN3CCN(S(N)(=O)=O)CC3)s2)o1 | 0.625% |
| COc1c(C2CCCN2Cc2nccn2C)c(C)nn1C (configuration not stated) | 2.44% |
| CCN(C)S(=O)(=O)N(Cc1cscn1)c1ccccc1 | -7.14% |
| COc1c(C2CCCN2Cc2nnc(C3CC3)n2C)c(C)nn1C (configuration not stated) | -5.73% |
| O=c1ccncn1Cc1csc(C2CC2)n1 | -3.74% |
| Cc1cc(C)n2c(CNCc3ccc(OC(F)F)cc3)cnc2n1 | -9.15% |
| CC(C)c1nnc(CN2CC(n3cccn3)C2)o1 | -6.56% |
| CNC(=O)C1Cc2ccccc2CN1C(=O)CC(C)C (configuration not stated) | -10.1% |
| CCN(CC)C(CNC(=O)c1ccc(-n2cncn2)cc1)c1ccsc1 (configuration not stated) | -3.69% |
| CN(C)C(CNC(=O)c1ccnc(-n2cncn2)c1)c1ccccc1 (configuration not stated) | -9.4% |
| O=C(NCC1CCS(=O)(=O)C1)N(Cc1ccncc1)C1CC1 (configuration not stated) | -6.32% |
| COc1ccccc1C(C)(C)NC(=O)c1ccc(F)c(NC(C)=O)c1 | -7.74% |
| Cc1nnc(N2CCc3cncnc3C2)c(C#N)c1C | -4.76% |
| COc1ccccc1C(C)(C)NC(=O)Nc1ccc(F)c(C(N)=O)c1 | -4.97% |
| NS(=O)(=O)c1ccc(NCc2ccco2)c2ncccc12 | 8.34% |
| CCc1cc(=O)[nH]c(-c2ccc(NC(C)CN3CCOCC3)nc2)n1 (configuration not stated) | -0.904% |
| CCC(c1ccc(F)cc1)S(=O)(=O)CCO (configuration not stated) | 15.3% |
| Cn1cc(C2CN(C(=O)Cc3coc(-c4ccccc4)n3)CCO2)cn1 (configuration not stated) | 4.27% |
| CC(C)CCC(=O)NCC(=O)N1CCCCCC1c1ccco1 (configuration not stated) | -5.74% |
| CCOCCCC(=O)N1CCN(c2cccc(OC)c2)C(C)C1 (configuration not stated) | 12.3% |
| Cc1cc(I)cnc1NC(=O)C(C)(C)C | 5.65% |
| CCC(CC)N(Cc1cc(=O)n(C)c(=O)n1C)C1CC1 | 5.26% |

| SMILES | cytotoxicity at 70.5 h |
| --- | --- |
| O=C(Cn1ccc(=O)[nH]c1=O)NCC1Cc2ccccc2O1 (configuration not stated) | -11.6% |
| Cn1ccc(CN2CCCC(CNS(C)(=O)=O)C2)cc1=O (configuration not stated) | -10.1% |
| CC(C)C(C(=O)NC1CC1)n1cnc2cc(F)c(F)cc21 (configuration not stated) | -0.654% |
| COC(=O)C(C)N(Cc1cc(=O)n(C)c(=O)n1C)C1CC1 (configuration not stated) | 4.91% |
| Clc1ccc(C2(NCc3noc(C4CC4)n3)CCOCC2)cc1 | -8.54% |
| N#CC1(C(=O)N2CCC(Nc3cccnn3)CC2)CCCCC1 | 0.814% |
| CC(Nc1ccc(N2C(=O)CCCC2=O)cc1)c1ccc(C#N)cc1 (configuration not stated) | -6.87% |
| CCOCC(=O)Nc1ncc(I)cc1C | -7.61% |
| CN(C)Cc1ccc(NC(=O)c2nccn3ccnc23)cc1 | -4.61% |
| Cc1noc(C)c1NS(=O)(=O)c1cc(C(=O)O)cc(Cl)c1Cl | -4.5% |
| CCCOCC(=O)Nc1ncc(I)cc1C | 4.92% |
| Cc1nnc(-c2ccc(C(=O)Nc3ccnc(N(C)C)n3)cc2)o1 | 4.63% |
| O=C(Nc1ccc(CN2CCOCC2)cc1)c1nccn2ccnc12 | 22.2% |
| c1ccc(N2CCC(NCc3cccc4cn[nH]c34)C2)cc1 (configuration not stated) | 7.7% |
| CCOCCCC(=O)N1CCN(C(=O)Cc2cccc(OC)c2)CC1 | -5.09% |
| COC(=O)CNC(=O)C(C(C)C)n1cnc2cc(F)c(F)cc21 (configuration not stated) | 5.81% |
| Clc1ccc(C2(NCc3noc(C4CC4)n3)CCCC2)cc1 | -0.425% |
| CCOCCOC(C)C(=O)Nc1ccc2ccn(CCN(C)C)c2c1 (configuration not stated) | -1.63% |
| CN(C)c1nccc(NC(=O)c2ccncc2)n1 | -7.12% |
| CC(C)(C)Oc1ccc(C(=O)N2CCOCC2c2ncon2)cc1 (configuration not stated) | -0.751% |
| O=C(c1ccc(SC(F)F)cc1)N1CCOCC1c1ncon1 (configuration not stated) | -3.71% |
| CC(C)CC(NC(=O)C1=CCCC1)C(=O)N1CCC(CO)CC1 (configuration not stated) | 0.304% |
| CC(CCc1ccccc1)NC(=O)CNCCCN(C)C (configuration not stated) | -3.07% |
